How the values were obtained:
Experiment in all cases: fluorescence titration and Job plot
[1] = test system: ds12 (DNA, duplex) CGCGAATTCGCG; conditions: 100 mM K+ (KCl) plus 20 mM potassium phosphate; pH 7, 20 °C, Job total 2 µM; lowest fluorescence enhancement
[2] = test system: M2 (DNA, G4) TAGGGACGGGCGGGCAGGGT; conditions: 100 mM K+ (KCl) plus 20 mM potassium phosphate; pH 7, 20 °C, Job total 2 µM; medium fluorescence enhancement
[3] = test system: m-tel24 (DNA, G4) TTGGGTTAGGGTTAGGGTTAGGGA; conditions: 100 mM K+ (KCl) plus 20 mM potassium phosphate; pH 7, 20 °C, Job total 2 µM; highest fluorescence; groove binding suggested by induced CD

Measured: binding

CN(C)CCCNC(=O)c1ccc2[nH]c3c([nH]c2c1)c1c(=O)n(CCCN(C)C)c(=O)c2ccc4c(=O)n(CCCN(C)C)c(=O)c3c4c21
yes: all assays above
